Laboratory results taken from patent publication US5288720A, “Angiotensin II receptor blocking 2,3,6 substituted quinazolinones” (American Cyanamid Company, priority 1993, dated 1994).

System: ANGIOTENSIN II VASOPRESSOR RESPONSE
Test: AII Challenge: blockade of angiotensin II vasopressor response in conscious SHR
Format: in vivo, rat (Conscious Male Okamoto-Aoki SHR)
Conditions: SHR n=2
Method in brief: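 Conscious male Okamoto-Aoki SHR (16-20 weeks, ~330 g) cannulated in aorta and vena cava under local procaine; angiotensin II (human) 0.05 and 0.1 ug/kg i.v. given before and at 30-300 min after test compound i.v., i.p. or orally. Rise in systolic pressure (mmHg) expressed as % blockade versus each rat's predose response.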

[1] = 3 mg/kg i.v., AII 0.05 mcg/kg IV, 30 min post dose
[2] = 3 mg/kg i.v., AII 0.05 mcg/kg IV, 60 min post dose
[3] = 3 mg/kg i.v., AII 0.05 mcg/kg IV, 90 min post dose
[4] = 3 mg/kg i.v., AII 0.05 mcg/kg IV, 120 min post dose
[5] = 3 mg/kg i.v., AII 0.05 mcg/kg IV, 180 min post dose
[6] = 3 mg/kg i.v., AII 0.05 mcg/kg IV, 240 min post dose
[7] = 3 mg/kg i.v., AII 0.05 mcg/kg IV, 300 min post dose
[8] = 3 mg/kg i.v., AII 0.1 mcg/kg IV, 30 min post dose
[9] = 3 mg/kg i.v., AII 0.1 mcg/kg IV, 60 min post dose
[10] = 3 mg/kg i.v., AII 0.1 mcg/kg IV, 120 min post dose
[11] = 3 mg/kg i.v., AII 0.1 mcg/kg IV, 180 min post dose
[12] = 3 mg/kg i.v., AII 0.1 mcg/kg IV, 240 min post dose
[13] = 3 mg/kg i.v., AII 0.1 mcg/kg IV, 300 min post dose
[14] = 3 mg/kg p.o., AII 0.05 mcg/kg IV, 30 min post dose
[15] = 3 mg/kg p.o., AII 0.05 mcg/kg IV, 60 min post dose
[16] = 3 mg/kg p.o., AII 0.05 mcg/kg IV, 90 min post dose
[17] = 3 mg/kg p.o., AII 0.05 mcg/kg IV, 120 min post dose
[18] = 3 mg/kg p.o., AII 0.05 mcg/kg IV, 180 min post dose
[19] = 3 mg/kg p.o., AII 0.05 mcg/kg IV, 240 min post dose
[20] = 3 mg/kg p.o., AII 0.1 mcg/kg IV, 30 min post dose
[21] = 3 mg/kg p.o., AII 0.1 mcg/kg IV, 60 min post dose
[22] = 3 mg/kg p.o., AII 0.1 mcg/kg IV, 90 min post dose
[23] = 3 mg/kg p.o., AII 0.1 mcg/kg IV, 120 min post dose
[24] = 3 mg/kg p.o., AII 0.1 mcg/kg IV, 180 min post dose
[25] = 3 mg/kg p.o., AII 0.1 mcg/kg IV, 240 min post dose
[26] = 10 mg/kg p.o., AII 0.05 mcg/kg IV, 30 min post dose
[27] = 10 mg/kg p.o., AII 0.05 mcg/kg IV, 60 min post dose
[28] = 10 mg/kg p.o., AII 0.05 mcg/kg IV, 90 min post dose
[29] = 10 mg/kg p.o., AII 0.05 mcg/kg IV, 120 min post dose
[30] = 10 mg/kg p.o., AII 0.05 mcg/kg IV, 180 min post dose
[31] = 10 mg/kg p.o., AII 0.05 mcg/kg IV, 240 min post dose
[32] = 10 mg/kg p.o., AII 0.05 mcg/kg IV, 300 min post dose
[33] = 10 mg/kg p.o., AII 0.1 mcg/kg IV, 30 min post dose
[34] = 10 mg/kg p.o., AII 0.1 mcg/kg IV, 60 min post dose
[35] = 10 mg/kg p.o., AII 0.1 mcg/kg IV, 90 min post dose
[36] = 10 mg/kg p.o., AII 0.1 mcg/kg IV, 120 min post dose
[37] = 10 mg/kg p.o., AII 0.1 mcg/kg IV, 180 min post dose
[38] = 10 mg/kg p.o., AII 0.1 mcg/kg IV, 240 min post dose
[39] = 10 mg/kg p.o., AII 0.1 mcg/kg IV, 300 min post dose

Structure (SMILES): CCCCc1nc2ccc(C(O)C3CCN(C)C3=O)cc2c(=O)n1Cc1ccc(-c2ccccc2-c2nn[nH]n2)cc1 (single isomer, unassigned; isomer 2) [Example 33, 2-Butyl-6-[hydroxy(1-methyl-2-oxo-3-pyrrolidinyl)methyl-3-[[2'-(1H-tetrazol-5-yl)[1,1'-biphenyl]-4-yl]methyl]-4(3H)-quinazolinone isomer 2]
- % Inhibition of AII vasopressor response [1]: 100%
- Average Change (systolic blood pressure response to AII) [1]: 0 mmHg
- % Inhibition of AII vasopressor response [2]: 100%
- Average Change (systolic blood pressure response to AII) [2]: 0 mmHg
- % Inhibition of AII vasopressor response [3]: 100%
- Average Change (systolic blood pressure response to AII) [3]: 0 mmHg
- % Inhibition of AII vasopressor response [4]: 100%
- Average Change (systolic blood pressure response to AII) [4]: 0 mmHg
- % Inhibition of AII vasopressor response [5]: 81%
- Average Change (systolic blood pressure response to AII) [5]: 7.5 mmHg
- % Inhibition of AII vasopressor response [6]: 56%
- Average Change (systolic blood pressure response to AII) [6]: 17.5 mmHg
- % Inhibition of AII vasopressor response [7]: 44%
- Average Change (systolic blood pressure response to AII) [7]: 22.5 mmHg
- % Inhibition of AII vasopressor response [8]: 86%
- Average Change (systolic blood pressure response to AII) [8]: 7.5 mmHg
- % Inhibition of AII vasopressor response [9]: 89%
- Average Change (systolic blood pressure response to AII) [9]: 6 mmHg
- Average Change (systolic blood pressure response to AII) (3 mg/kg i.v., AII 0.1 mcg/kg IV, 90 min post dose): 7.5 mmHg
- % Inhibition of AII vasopressor response [10]: 81%
- Average Change (systolic blood pressure response to AII) [10]: 10 mmHg
- % Inhibition of AII vasopressor response [11]: 52%
- Average Change (systolic blood pressure response to AII) [11]: 25 mmHg
- % Inhibition of AII vasopressor response [12]: 33%
- Average Change (systolic blood pressure response to AII) [12]: 35 mmHg
- % Inhibition of AII vasopressor response [13]: 38%
- Average Change (systolic blood pressure response to AII) [13]: 32.5 mmHg
- % Inhibition of AII vasopressor response [14]: 80%
- Average Change (systolic blood pressure response to AII) [14]: 10 mmHg
- % Inhibition of AII vasopressor response [15]: 65%
- Average Change (systolic blood pressure response to AII) [15]: 17.5 mmHg
- % Inhibition of AII vasopressor response [16]: 50%
- Average Change (systolic blood pressure response to AII) [16]: 25 mmHg
- % Inhibition of AII vasopressor response [17]: 63%
- Average Change (systolic blood pressure response to AII) [17]: 18.5 mmHg
- % Inhibition of AII vasopressor response [18]: 35%
- Average Change (systolic blood pressure response to AII) [18]: 32.5 mmHg
- % Inhibition of AII vasopressor response [19]: 30%
- Average Change (systolic blood pressure response to AII) [19]: 35 mmHg
- % Inhibition of AII vasopressor response [20]: 63%
- Average Change (systolic blood pressure response to AII) [20]: 17.5 mmHg
- % Inhibition of AII vasopressor response [21]: 47%
- Average Change (systolic blood pressure response to AII) [21]: 25 mmHg
- % Inhibition of AII vasopressor response [22]: 37%
- Average Change (systolic blood pressure response to AII) [22]: 30 mmHg
- % Inhibition of AII vasopressor response [23]: 53%
- Average Change (systolic blood pressure response to AII) [23]: 22.5 mmHg
- % Inhibition of AII vasopressor response [24]: 21%
- Average Change (systolic blood pressure response to AII) [24]: 37.5 mmHg
- % Inhibition of AII vasopressor response [25]: 0%
- Average Change (systolic blood pressure response to AII) [25]: 47.5 mmHg

Structure (SMILES): CCCCc1nc2ccc(C(O)C3CCCN(C)C3=O)cc2c(=O)n1Cc1ccc(-c2ccccc2-c2nn[nH]n2)cc1 (single isomer, unassigned; isomer 2) [Example 38, 2-Butyl-6-hydroxy(1-methyl-2-oxo-3-piperidinyl)methyl-3-[[2'-(1H-tetrazol-5-yl)[1,1'-biphenyl]-4-yl]methyl-4(3H)-quinazolinone isomer 2]
- % Inhibition of AII vasopressor response [14]: 70%
- Average Change (systolic blood pressure response to AII) [14]: 7.5 mmHg
- % Inhibition of AII vasopressor response [15]: 50%
- Average Change (systolic blood pressure response to AII) [15]: 12.5 mmHg
- % Inhibition of AII vasopressor response [16]: 46%
- Average Change (systolic blood pressure response to AII) [16]: 13.5 mmHg
- % Inhibition of AII vasopressor response [17]: 70%
- Average Change (systolic blood pressure response to AII) [17]: 7.5 mmHg
- % Inhibition of AII vasopressor response [18]: 70%
- Average Change (systolic blood pressure response to AII) [18]: 7.5 mmHg
- % Inhibition of AII vasopressor response [19]: 40%
- Average Change (systolic blood pressure response to AII) [19]: 15 mmHg
- % Inhibition of AII vasopressor response [20]: 57%
- Average Change (systolic blood pressure response to AII) [20]: 15 mmHg
- % Inhibition of AII vasopressor response [21]: 20%
- Average Change (systolic blood pressure response to AII) [21]: 27.5 mmHg
- % Inhibition of AII vasopressor response [22]: 32%
- Average Change (systolic blood pressure response to AII) [22]: 23.5 mmHg
- % Inhibition of AII vasopressor response [23]: 52%
- Average Change (systolic blood pressure response to AII) [23]: 16.5 mmHg
- % Inhibition of AII vasopressor response [24]: 28%
- Average Change (systolic blood pressure response to AII) [24]: 25 mmHg
- % Inhibition of AII vasopressor response [25]: 16%
- Average Change (systolic blood pressure response to AII) [25]: 29 mmHg
- % Inhibition of AII vasopressor response [26]: 50%
- Average Change (systolic blood pressure response to AII) [26]: 25 mmHg
- % Inhibition of AII vasopressor response [27]: 40%
- Average Change (systolic blood pressure response to AII) [27]: 30 mmHg
- % Inhibition of AII vasopressor response [28]: 25%
- Average Change (systolic blood pressure response to AII) [28]: 37.5 mmHg
- % Inhibition of AII vasopressor response [29]: 50%
- Average Change (systolic blood pressure response to AII) [29]: 25 mmHg
- % Inhibition of AII vasopressor response [30]: 5%
- Average Change (systolic blood pressure response to AII) [30]: 47.5 mmHg
- % Inhibition of AII vasopressor response [31]: -5%
- Average Change (systolic blood pressure response to AII) [31]: 52.5 mmHg
- % Inhibition of AII vasopressor response [32]: 0%
- Average Change (systolic blood pressure response to AII) [32]: 50 mmHg
- % Inhibition of AII vasopressor response [33]: 35%
- Average Change (systolic blood pressure response to AII) [33]: 37.5 mmHg
- % Inhibition of AII vasopressor response [34]: 39%
- Average Change (systolic blood pressure response to AII) [34]: 35 mmHg
- % Inhibition of AII vasopressor response [35]: 35%
- Average Change (systolic blood pressure response to AII) [35]: 37.5 mmHg
- % Inhibition of AII vasopressor response [36]: 43%
- Average Change (systolic blood pressure response to AII) [36]: 32.5 mmHg
- % Inhibition of AII vasopressor response [37]: 13%
- Average Change (systolic blood pressure response to AII) [37]: 50 mmHg
- % Inhibition of AII vasopressor response [38]: 22%
- Average Change (systolic blood pressure response to AII) [38]: 45 mmHg
- % Inhibition of AII vasopressor response [39]: 4%
- Average Change (systolic blood pressure response to AII) [39]: 55 mmHg
